Measurements as given in patent US7671057B2, “Therapeutic agent for type II diabetes comprising protease-inhibiting compound” (Ono Pharmaceutical Co., Ltd., priority 2004, dated 2010).
“Also recorded” adds a separate entry of the source.

Tests used:
[1] = Body weight, administration as admixture with food (Example 2); assay type: in vivo, mouse
Procedure: (§1) KK-A^y/Ta Jcl Mice (male, 6- to 7-weeks aged, the number of cases; 8 animals) were treated through individual administration, in the form of an admixture with a food, of the Test Compound 2 (N-allyl-N-{(2E)-3-[4-({4-[amino(imino)methyl]phenoxy}-carbonyl)phenyl]-2-methyl-2-propenoyl}glycine/dimethane-sulfonate) of the present invention and the Control Compound 1 (5-(4-[2-(5-ethylpyridine-2-yl)ethoxy]benzyl)-1,3-thiazolidine-2,4-dione; pioglitazone) at the daily dose of 16.8 mg/100 g-food for 7 consecutive days, whereby the control group was fed with an ordinary food alone.
(§2) Blood was drawn from the tail vein individually on the day (Day 1) preceding to administration of the Test Compound in the form of an admixture with a food, and on Days 2, 5, 7 and 14 of administration, and the blood samples were subjected to measurement of the blood-sugar level in accordance with the same procedure as described in Example 1, while, at the same time, the animals were weighed.

[2] = tested on: KK-A^y/Ta Jcl mice; experiment: Blood-sugar level at satiety, dose-ranging food admixture up to Day 28 (Example 3); assay type: in vivo, mouse; conditions: for Blood-sugar level: end of the test (Day 28)
Procedure: KK-A^y/Ta Jcl Mice (male, 6-weeks aged, the number of cases; 8 animals) were treated through individual administration, in the form of an admixture with a food, of the Test Compound 2 (N-allyl-N-{(2E)-3-[4-({4-[amino(imino)methyl]phenoxy}-carbonyl)phenyl]-2-methyl-2-propenoyl}glycine/dimethanesulfonate) of the present invention at the daily doses of 0.56 mg, 1.68 mg, 5.6 mg and 16.8 mg/100 g-food, respectively, and the Control Compound 1 (5-{4-[2-(5-ethylpyridine-2-yl)-ethoxy]benzyl}-1,3-thiazolidine-2,4-dion; pioglitazone) at the daily doses of 5.6 mg and 16.8 mg/100 g-food, respectively, […], whereby the control group was fed with an ordinary food alone.
Blood was drawn from the tail vein individually on the day preceding to administration of each compound in the form of an admixture with a food, and on Days 6, 11, 16, 21 and 28 of administration.
(§3) The blood samples taken from the tail vein on the respective specified days after the administration were subjected to measurement of the blood-sugar level in accordance with the method as described in Example 1, while the plasma glucagon level after the forced oral administration performed on Days 28 was measured in accordance with the ELISA method as described in Example 1. Also, the glycosylated hemoglobin (HbA1c) and GLP-1 levels were determined in accordance with the latex coagulation method and the ELISA method (YK160, GLP-1 EIA Kit, produced by K.K. Yanaihara Kenkyu-sho of Japan), respectively, while the TG level was measured in accordance with the method as described in Example 1. The total pancreatic insulin content after oral administration of each compound was determined by adding 75% ethanol to the isolated pancreas as frozen, followed by homogenization, and collecting the insulin fraction through Sep-Pak (C18; WATER) treatment of the supernatant liquid produced by centrifugation, followed by determination with the ELIZA method.

[3] = tested on: KK-A^y/Ta Jcl mice; experiment: Plasma GLP-1, glucagon, blood-sugar, HbA1c and TG 30 min after forced oral administration on Day 28 (Example 3); assay type: in vivo, mouse
Procedure: (§4) On Day 28 of administration of each compound in the form of an admixture with a food, furthermore, each animal after blood had been drawn from the tail vein was treated through individual forced oral administration of the Test Compound 2 in the form of the solutions individually consisting of 0.2, 0.6, 2.0 and 6.0 mg/mL-0.5% CMC suspension in each 5 mL/kg portion, as well as the Control Compound 1 in the form of the solutions individually consisting of 2.0 and 6 mg/mL-0.5% CMC suspension in each 5 ml/kg portion, followed by blood drawing 30 min. later and autopsy to thereby measure the weights of the pancreas, liver and kidney, whereby the control group was treated through administration of the 0.5% CMC suspension in the same portion.
as §3

[4] = tested on: KK-A^y/Ta Jcl mice; experiment: Total pancreatic insulin content (Example 3); assay type: in vivo, mouse
Procedure: as §3

[5] = target: leukotriene B4 (LTB4) receptor (Homo sapiens, UniProt Q15722); conditions: cited from earlier work
[6] = tested on: pancreatic Langerhans' islets; experiment: Histopathological analysis of the pancreas (Example 3); assay type: in vivo, mouse; conditions: Day 28
Procedure: Histopathological analysis of the pancreas (pathological analysis of the pancreatic Langerhans' islets (α-, β- and δ-cells) was carried out by embedding the tissue in paraffin, followed by thin slicing and respective staining through the Grimelius staining, Gomori's aldehyde-fuchsin staining and Hellman-Hellerstroem' staining.

[7] = tested on: KK-A^y/Ta Jcl mice; experiment: Weights of pancreas, liver and kidney at autopsy (Example 3); assay type: in vivo, mouse
Procedure: as §4

[8] = tested on: KK-A^y/Ta Jcl mice; experiment: Blood-sugar level, administration as admixture with food (Example 2); assay type: in vivo, mouse
Procedure: as §1, §2

[9] = day preceding administration (baseline), 16.8 mg/100 g-food group
[10] = autopsy Day 28, Dose 0.56 (g/100 g-food)
[11] = autopsy Day 28, Dose 1.68 (g/100 g-food)
[12] = autopsy Day 28, Dose 16.8 (g/100 g-food)

Sequence of leukotriene B4 (LTB4) receptor (Q15722 whole entry): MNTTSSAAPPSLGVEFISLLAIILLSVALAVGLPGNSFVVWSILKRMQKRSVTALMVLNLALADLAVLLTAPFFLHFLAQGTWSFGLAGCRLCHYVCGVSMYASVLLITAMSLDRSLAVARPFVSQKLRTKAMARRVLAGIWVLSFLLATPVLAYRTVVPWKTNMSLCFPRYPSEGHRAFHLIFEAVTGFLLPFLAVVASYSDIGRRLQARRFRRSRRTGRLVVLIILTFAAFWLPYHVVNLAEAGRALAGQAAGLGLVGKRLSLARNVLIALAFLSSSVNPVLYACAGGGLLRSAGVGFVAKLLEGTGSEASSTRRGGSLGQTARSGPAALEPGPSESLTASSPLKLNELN

C=CCN(CC(=O)O)C(=O)/C(C)=C/c1ccc(C(=O)Oc2ccc(C(=N)N)cc2)cc1 [Test Compound 2, N-allyl-N-{(2E)-3-[4-({4-[amino(imino)methyl]phenoxy}-carbonyl)phenyl]-2-methyl-2-propenoyl}glycine/dimethane-sulfonate]
Body weight Day 2 ([1]; 16.8 mg/100 g-food admixture): 29.8 ± 0.7 g
Body weight Day 5 ([1]; 16.8 mg/100 g-food admixture): 30.6 ± 0.8 g
Body weight Day 7 ([1]; 16.8 mg/100 g-food admixture): 32.4 ± 1.0 g
Body weight Day 14 ([1]; 16.8 mg/100 g-food admixture): 34.6 ± 1.3 g
Body weight Day 1 [1, 9]: 30.6 ± 0.6 g
Effect on body weight (in words) ([1]; food admixture 16.8 mg/100 g-food, time course): not observed to produce any difference from the control group; also recorded: did not show any body-weight elevating actions
Time-course changes in blood-sugar level at satiety vs Control Group (in words, FIG. 1) ([2]; 5.6 mg/100 g group): significant drop in the blood-sugar level at the end of the test
Time-course changes in blood-sugar level at satiety vs Control Group (in words, FIG. 1) ([2]; 16.8 mg/100 g group): significant continued drops in the blood-sugar level
Blood-sugar level ([2]; Dose 0.56 (g/100 g-food)): 524.6 ± 47.3 mg/dL
Blood-sugar level ([2]; Dose 1.68 (g/100 g-food)): 620.9 ± 79.6 mg/dL
Blood-sugar level ([2]; Dose 5.6 (g/100 g-food)): 369.7 ± 39.6 mg/dL
Blood-sugar level ([2]; Dose 16.8 (g/100 g-food)): 251.2 ± 34.7 mg/dL
Change in HbA1C level (in words) [3]: decreased
Change in TG level (in words) [3]: decreased
Change in blood-sugar level (in words) [3]: decreased
Change in plasma glucagon level (in words) [3]: drops in the plasma glucagon level
Change in plasma GLP-1 level (in words) ([3]; 30 min after forced oral administration): plasma GLP-1 increasing effect
Total pancreatic insulin content (in words) ([4]; Day 28): increase in the total pancreatic insulin content
Total pancreatic insulin content ([4]; Day 28, Dose 1.68 (g/100 g-food)): 9.40 ± 2.24 µg
Total pancreatic insulin content ([4]; Day 28, Dose 5.6 (g/100 g-food)): 17.11 ± 2.76 µg
LTB4 receptor antagonistic action [5]: LTB4 antagonistic action
Number of pancreatic B-cells (postmortem findings) [6]: increase the number of pancreatic B-cells
Size of Langerhans' cells of the pancreatic islets (postmortem findings) [6]: enlarge the Langerhans' cells of the pancreatic islets
Weight of the kidney (in words) ([7]; autopsy Day 28): suppressed from rising
Weight of the liver (in words) ([7]; autopsy Day 28): suppressed from rising
Weight of the pancreas (in words) ([7]; autopsy Day 28): increased
Weight Kidney [7, 10]: 0.47 ± 0.01 g
Weight Liver [7, 10]: 2.01 ± 0.08 g
Weight Pancreas [7, 10]: 0.342 ± 0.01 g
Weight Kidney [7, 11]: 0.49 ± 0.01 g
Weight Liver [7, 11]: 2.08 ± 0.07 g
Weight Pancreas [7, 11]: 0.41 ± 0.02 g
Weight Kidney [7, 12]: 0.41 ± 0.01 g
Weight Liver [7, 12]: 1.52 ± 0.06 g
Weight Pancreas [7, 12]: 0.45 ± 0.03 g
Blood-sugar level Day 2 ([8]; 16.8 mg/100 g-food admixture): 286.5 ± 58.3 mg/dL
Blood-sugar level Day 5 ([8]; 16.8 mg/100 g-food admixture): 314.8 ± 14.4 mg/dL
Blood-sugar level Day 7 ([8]; 16.8 mg/100 g-food admixture): 291.0 ± 5.1 mg/dL
Blood-sugar level Day 14 ([8]; 16.8 mg/100 g-food admixture): 248.0 ± 11.5 mg/dL
Blood-sugar level Day 1 [8, 9]: 300.0 ± 18.9 mg/dL
Blood-sugar lowering action (in words) ([8]; food admixture 16.8 mg/100 g-food, as from Day 5 afterwards): significant blood-sugar lowering action; also recorded: more potent blood-sugar lowering action
